In US9179674B2, “Macrocyclic picolinamide compounds with fungicidal activity” (DOW AGROSCIENCES LLC, priority 2013, dated 2015):
Like-named read-outs stand apart in the source and are kept apart here.

Legend:
Format in all cases: in vivo
Erysiphe cichoracearum = assay: Powdery Mildew of Cucumber fungicidal activity (ERYSCI); conditions: Golovinomyces cichoracearum, 24 h, 1 Day Protectant, read-out: Disease Control ERYSCI 1DP
Method: Technical grades of materials were dissolved in acetone, which were then mixed with nine volumes of water containing 110 ppm Triton X-100. The fungicide solutions were applied onto wheat seedlings using an automated booth sprayer to run-off. All sprayed plants were allowed to air dry prior to further handling. All fungicides were evaluated using the aforementioned method for their activity vs. all target diseases. Wheat leaf blotch and brown rust activity were also evaluated using track spray applications, in which case the fungicides were formulated as EC formulations, containing 0.1% Trycol 5941 in the spray solutions. Wheat plants (variety Yuma) were grown from seed in a greenhouse in 50% mineral soil/50% soil-less Metro mix until the first leaf was fully emerged, with 7-10 seedlings per pot. These plants were inoculated with an aqueous spore suspension of Septoria tritici either prior to or after fungicide treatments. After inoculation the plants were kept in 100% relative humidity (one day in a dark dew chamber followed by two to three days in a lighted dew chamber at 20° C.) to permit spores to germinate and infect the leaf. The plants were then transferred to a greenhouse set at 20° C. for disease to develop. When disease symptoms were fully expressed on the 1st leaves of untreated plants, infection levels were assessed on a scale of 0 to 100 percent disease severity. Percent disease control was calculated using the ratio of disease severity on treated plants relative to untreated plants. Evaluation of Fungicidal Activity: Powdery Mildew of Cucumber (Erysiphe cichoracearum; Bayer Code […]) Cucumber seedlings (variety Bush Pickle) were grown in soil-less Metro mix, with one plant per pot, and used in the test when 12 to 14 days old. Plants were inoculated with a spore suspension 24 hr following fungicide treatments. After inoculation the plants remained in the greenhouse set at 20° C. until disease was fully expressed. Fungicide formulation, application and disease assessment on the sprayed leaves followed the procedures as described in the Example A.

[1] = test system: Mycosphaerella graminicola; Anamorph: Septoria tritici; assay: Leaf Blotch of Wheat fungicidal activity (SEPTTR); conditions: Zymoseptoria tritici; for pest or weed control at 100 ppm: rate 100 ppm; for pest or weed control at 121.5 g/ha: rate 121.5 g/H
Summary of the method: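 Acetone solutions diluted with nine volumes of water containing 110 ppm Triton X-100, sprayed to run-off on first-leaf wheat seedlings (Yuma), inoculated with S. tritici before or after treatment. Plants held in dew chambers, then in a 20 °C greenhouse. Disease severity (0–100%) scored when untreated plants fully symptomatic; % control relative to untreated.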

[2] = test system: Glomerella lagenarium; Anamorph: Colletotrichum lagenarium; assay: Cucumber Anthracnose fungicidal activity (COLLLA); conditions: Colletotrichum orbiculare, 24 h, 1 Day Protectant, read-out: Disease Control COLLLA 1DP
Method: Technical grades of materials were dissolved in acetone, which were then mixed with nine volumes of water containing 110 ppm Triton X-100. The fungicide solutions were applied onto wheat seedlings using an automated booth sprayer to run-off. All sprayed plants were allowed to air dry prior to further handling. All fungicides were evaluated using the aforementioned method for their activity vs. all target diseases. Wheat leaf blotch and brown rust activity were also evaluated using track spray applications, in which case the fungicides were formulated as EC formulations, containing 0.1% Trycol 5941 in the spray solutions. Wheat plants (variety Yuma) were grown from seed in a greenhouse in 50% mineral soil/50% soil-less Metro mix until the first leaf was fully emerged, with 7-10 seedlings per pot. These plants were inoculated with an aqueous spore suspension of Septoria tritici either prior to or after fungicide treatments. After inoculation the plants were kept in 100% relative humidity (one day in a dark dew chamber followed by two to three days in a lighted dew chamber at 20° C.) to permit spores to germinate and infect the leaf. The plants were then transferred to a greenhouse set at 20° C. for disease to develop. When disease symptoms were fully expressed on the 1st leaves of untreated plants, infection levels were assessed on a scale of 0 to 100 percent disease severity. Percent disease control was calculated using the ratio of disease severity on treated plants relative to untreated plants. Evaluation of Fungicidal Activity: Cucumber Anthracnose (Glomerella lagenarium; Anamorph: Colletotrichum lagenarium; Bayer Code COLLLA) Cucumber seedlings (variety Bush Pickle) were propagated in soil-less Metro mix, with each pot having one plant, and used in the test when 12 to 14 days old. Test plants were inoculated with an aqueous spore suspension of Colletotrichum lagenarium 24 hr after fungicide treatments. After inoculation the plants were kept in a dew room at 22° C. with 100% relative humidity for 48 hr to permit spores to germinate and infect the leaf. The plants were then transferred to a growth room set at 22° C. for disease to develop. Fungicide formulation, application and disease assessment on the sprayed leaves followed the procedures as described in the Example A.

[3] = 24 h, 1 Day Protectant, read-out: Disease control SEPTTR 1DP
[4] = 72 h, 3 Day Curative, read-out: Disease control SEPTTR 3DC

Structure (SMILES)	pest or weed control at 100 ppm (Erysiphe cichoracearum)	pest or weed control at 100 ppm [1, 3]	pest or weed control at 121.5 g/ha [1, 3]	pest or weed control at 100 ppm [1, 4]	pest or weed control at 121.5 g/ha [1, 4]	pest or weed control at 100 ppm [2]
COc1ccnc(C(=O)N[C@H]2COC[C@H](Cc3ccc(F)cc3)[C@@H](OCC(C)C)[C@H](C)OC2=O)c1OC(C)=O [Compound F60]	80 to 100%	80 to 100%	80 to 100%	80 to 100%	80 to 100%	
COc1ccnc(C(=O)N[C@H]2COC[C@H](Cc3ccc(Cl)cc3Cl)[C@@H](OC(=O)C(C)C)[C@H](C)OC2=O)c1OC(C)=O [Compound F73]	0 to 80%	80 to 100%	80 to 100%	80 to 100%	80 to 100%	80 to 100%
COc1ccnc(C(=O)N[C@H]2COC[C@H](Cc3ccc(C)cc3)[C@@H](OCC(C)C)[C@H](C)OC2=O)c1OC(C)=O [Compound F80]	80 to 100%	80 to 100%	80 to 100%	80 to 100%	80 to 100%	80 to 100%
COc1ccnc(C(=O)N[C@H]2COC[C@H](CCc3ccccc3)[C@@H](OCC(C)C)[C@H](C)OC2=O)c1OCOC(C)=O [Compound F82]	0 to 80%	80 to 100%	80 to 100%	80 to 100%	80 to 100%	80 to 100%
COc1ccnc(C(=O)N[C@H]2COC[C@H](Cc3cccc4ccccc34)[C@@H](OC(=O)C(C)C)[C@H](C)OC2=O)c1OCOC(C)=O [Compound F83, (3S,6S,7R,8S)-3-(3-(acetoxymethoxy)-4-methoxypicolin-amido)-6-methyl-8-(naphthalen-1-ylmethyl)-4-oxo-1,5-dioxonan-7-yl isobutyrate]		80 to 100%	0 to 80%	80 to 100%	80 to 100%	80 to 100%
COc1ccnc(C(=O)N[C@H]2COC[C@H](Cc3ccc(F)cc3)[C@@H](OCC(C)C)[C@H](C)OC2=O)c1OCOC(C)=O [Compound F96]	80 to 100%	80 to 100%	80 to 100%	80 to 100%	80 to 100%	80 to 100%
COc1ccnc(C(=O)N[C@H]2COC[C@H](CC(F)(F)F)[C@@H](OC3CCCC3)[C@H](C)OC2=O)c1OCOC(C)=O [Compound F105]	0 to 80%	80 to 100%	80 to 100%	80 to 100%	80 to 100%	80 to 100%
COc1ccnc(C(=O)N[C@H]2COC[C@H](CCC(C)C)[C@@H](OCCCC(F)(F)F)[C@H](C)OC2=O)c1OCOC(C)=O [Compound F107]	80 to 100%	80 to 100%	80 to 100%	80 to 100%	80 to 100%	
COc1ccnc(C(=O)N[C@H]2COC[C@H](CCC(C)C)[C@@H](OC(=O)C3CC3)[C@H](C)OC2=O)c1OCOC(C)=O [Compound F108]	80 to 100%	80 to 100%	80 to 100%	80 to 100%	80 to 100%	
COc1ccnc(C(=O)N[C@H]2COC[C@H](Cc3ccc(Cl)cc3Cl)[C@@H](OC(=O)C(C)C)[C@H](C)OC2=O)c1OCOC(C)=O [Compound F110]	0 to 80%	80 to 100%	80 to 100%	80 to 100%	80 to 100%	80 to 100%
COc1ccnc(C(=O)N[C@H]2COC[C@H](CC3CCCC3)[C@@H](OC(=O)C(C)C)[C@H](C)OC2=O)c1OCOC(C)=O [Compound F114]	80 to 100%	80 to 100%	80 to 100%	80 to 100%	80 to 100%	80 to 100%
COc1ccnc(C(=O)N[C@H]2COC[C@H](Cc3ccc(C)cc3)[C@@H](OCC(C)C)[C@H](C)OC2=O)c1OCOC(C)=O [Compound F117]	80 to 100%	80 to 100%	80 to 100%	80 to 100%	80 to 100%	80 to 100%
CCCCCO[C@@H]1[C@@H](Cc2ccc(Cl)cc2Cl)COC[C@H](NC(=O)c2nccc(OC)c2OCOC(=O)COCC)C(=O)O[C@H]1C [Compound F122]	0 to 80%		80 to 100%			80 to 100%
CCCCCO[C@@H]1[C@@H](Cc2ccc(Cl)cc2Cl)COC[C@H](NC(=O)c2nccc(OC)c2OC(=O)CCOC)C(=O)O[C@H]1C [Compound F123]	80 to 100%		80 to 100%			80 to 100%
